Broadly, the melting point is the temperature, or range, at which the solid turns liquid. By mortality is commonly meant the share of the test organisms that died. Read a low mortality as a weak lethal effect.

Experimental findings from patent US10590123B2, “Pesticidally active amide heterocyclic derivatives with sulphur containing substituents” (SYNGENTA PARTICIPATIONS AG, priority 2014, dated 2020) are described below.

Series [1] relates to Frankliniella occidentalis (Western Flower Thrips). Nature of the series: Example B5: Activity against Frankliniella occidentalis, sprayed sunflower leaf discs. The series is classed as in vivo. Conditions: foliar, 168 h, application rate 200 ppm, population of mixed ages, 7 days after infestation. As for the experimental part: Example B5: Activity Against Frankliniella occidentalis (Western Flower Thrips)
Sunflower leaf discs were placed on agar in 24-well microtiter plates and sprayed with aqueous test solutions prepared from 10′000 ppm DMSO stock solutions. After drying the leaf discs were infested with a Frankliniella population of mixed ages. The samples were assessed for mortality 7 days after infestation.

Series [2] deals with Spodoptera littoralis (Egyptian Cotton Leaf Worm). The series is described as follows: Example B1: Activity against Spodoptera littoralis, sprayed cotton leaf discs. The series is classed as in vivo. Conditions: foliar, 72 h, application rate 200 ppm, L1 larvae, 3 days after infestation, read-out: control in at least one of the three categories (mortality, anti-feedancy or growth inhibition). Here is the method: Example B1: Activity Against Spodoptera littoralis (Egyptian Cotton Leaf Worm)
Cotton leaf discs were placed on agar in 24-well microtiter plates and sprayed with aqueous test solutions prepared from 10′000 ppm DMSO stock solutions. After drying the leaf discs were infested with five L1 larvae. The samples were assessed for mortality, anti-feedant effect, and growth inhibition in comparison to untreated samples 3 days after infestation. Control of Spodoptera littoralis by a test sample is when at least one of mortality, anti-feedant effect, and growth inhibition is higher than the untreated sample.

Series [3] relates to Diabrotica Balteata (Corn Root Worm). The series is described as follows: Example B4: Activity against Diabrotica balteata, sprayed maize sprouts. The series is classed as in vivo. Conditions: 96 h, application rate 200 ppm, L2 larvae, 4 days after infestation, read-out: effect in at least one of the two categories (mortality or growth inhibition). Here is the method:
Example B4: Activity Against Diabrotica Balteata (Corn Root Worm)
Maize sprouts, placed on an agar layer in 24-well microtiter plates were treated with aqueous test solutions prepared from 10′000 ppm DMSO stock solutions by spraying. After drying, the plates were infested with L2 larvae (6 to 10 per well). The samples were assessed for mortality and growth inhibition in comparison to untreated samples 4 days after infestation.

Series [4] has as its system Spodoptera littoralis (Egyptian Cotton Leaf Worm). The series is described as follows: Example B2: Activity against Spodoptera littoralis, systemic via lettuce roots in agar. The series is classed as in vivo. Particulars: 144 h, application rate 12.5 ppm, 6 days after infestation, read-out: control in at least one of the three categories (mortality, anti-feedancy or growth inhibition). An excerpt: Example B2: Activity Against Spodoptera littoralis (Egyptian Cotton Leaf Worm)
Test compounds were applied by pipette from 10′000 ppm DMSO stock solutions into 24-well plates and mixed with agar. Lettuce seeds were placed on the agar and the multi well plate was closed by another plate which contains also agar. After 7 days the roots have absorbed the compound and the lettuce has grown into the lid plate. The lettuce leafs were now cut off into the lid plate. Spodoptera eggs were pipetted through a plastic stencil on a humid gel blotting paper and the plate closed with it.
The samples were assessed for mortality, anti-feedant effect and growth inhibition in comparison to untreated samples 6 days after infestation.

The test system of series [5] is Plutella xylostella (Diamond Back Moth). The series is described as follows: Example B3: Activity against Plutella xylostella, artificial diet. The series is classed as in vivo. Conditions: 120 h, application rate 200 ppm, L2 larvae, 5 days after infestation, read-out: effect in at least one of the two categories (mortality or growth inhibition). Here is the method: Example B3: Activity Against Plutella xylostella (Diamond Back Moth)
24-well microtiter plates with artificial diet were treated with aqueous test solutions prepared from 10′000 ppm DMSO stock solutions by pipetting. After drying, the plates were infested with L2 larvae (10 to 15 per well). The samples were assessed for mortality and growth inhibition in comparison to untreated samples 5 days after infestation.

Series [6] has as its system Bemisia tabaci (Cotton White Fly). Nature of the series: Example B6: Activity against Bemisia tabaci, sprayed cotton leaf discs. The series is classed as in vivo. Conditions: foliar, 144 h, application rate 200 ppm, adult white flies, 6 days after incubation. As for the experimental part:
Example B6: Activity Against Bemisia tabaci (Cotton White Fly)
Cotton leaf discs were placed on agar in 24-well microtiter plates and sprayed with aqueous test solutions prepared from 10′000 ppm DMSO stock solutions. After drying the leaf discs were infested with adult white flies. The samples were checked for mortality 6 days after incubation.

Series [7] concerns Myzus persicae (Green Peach Aphid). Nature of the series: Example B8: Activity against Myzus persicae, sprayed sunflower leaf discs. Conditions: foliar, 144 h, application rate 200 ppm, aphid population of mixed ages, 6 days after infestation. The series is classed as in vivo. As for the experimental part: Example B8: Activity Against Myzus persicae (Green Peach Aphid)
Sunflower leaf discs were placed on agar in a 24-well microtiter plate and sprayed with aqueous test solutions prepared from 10′000 ppm DMSO stock solutions. After drying, the leaf discs were infested with an aphid population of mixed ages. The samples were assessed for mortality 6 days after infestation.

Series [8] relates to Euschistus heros (Neotropical Brown Stink Bug). The series is described as follows: Example B7: Activity against Euschistus heros, sprayed soybean leaf. It counts as in vivo. Particulars: 120 h, application rate 200 ppm, N-2 nymphs, 5 days after infestation. As for the experimental part:
Example B7: Activity Against Euschistus heros (Neotropical Brown Stink Bug)
Soybean leaf on agar in 24-well microtiter plates were sprayed with aqueous test solutions prepared from 10′000 ppm DMSO stock solutions. After drying the leaf were infested with N-2 nymphs. The samples were assessed for mortality 5 days after infestation.

The structures appear in SMILES notation. Some results are limits rather than exact numbers.

In turn, `CCSc1cc(-c2ccc(Cl)cc2)cnc1C(=O)Nc1nnc(C(F)(F)C(F)(F)F)s1` showed a melting point of 184 to 187 °C.
On the same count and under the same terms, the value for `CCS(=O)(=O)c1cc(-c2cc(F)cc(F)c2)cnc1C(=O)Nc1nnc(C(F)(F)C(F)(F)F)s1` was 242 to 244 °C.
Still for that read-out and setting: the same measure for `CCS(=O)(=O)c1cc(-c2cc(F)cc(F)c2)cnc1C(=O)N(C)c1nnc(C(F)(F)C(F)(F)F)s1`: 159 to 161 °C; for `CCS(=O)(=O)c1cc(-c2ccc(C(F)(F)F)cc2)ccc1C(=O)N(C)c1nnc(C(F)(F)F)s1`: 174 to 176 °C; for `CCS(=O)(=O)c1cc(-c2cccc(Cl)c2)cnc1C(=O)N(C)c1nnc(C(F)(F)F)s1`: 213 to 215 °C.
On the same count and under the same terms, the same measure for `CCSc1cc(-c2ccc(C(F)(F)F)cc2)cnc1C(=O)Nc1nnc(C(F)(F)C(F)(F)F)s1`: 254 to 256 °C.
Consider `CCS(=O)(=O)c1cc(-c2ccc(Cl)cc2)cnc1C(=O)N(C)c1nnc(C(F)(F)F)s1` [Compound P2, 5-(4-chlorophenyl)-3-ethylsulfonyl-N-methyl-N-[5-(trifluoromethyl)-1,3,4-thiadiazol-2-yl]pyridine-2-carboxamide], for which the mortality at 200 ppm in [1] and in [6] was no less than 80% throughout. Besides, in series [2], the percent control (mortality, anti-feedant effect or growth inhibition) at 200 ppm is no less than 80%. The percent effect (mortality or growth inhibition) at 200 ppm in [3] and in series [5] was no less than 80% throughout. Further, in series [4], the percent control (mortality, anti-feedant effect or growth inhibition) at 12.5 ppm is no less than 80%.
In the case of `CCS(=O)(=O)c1cc(-c2ccc(F)cc2F)cnc1C(=O)N(C)c1nnc(C(F)(F)F)s1` [Compound P25], the mortality at 200 ppm in series [7], in [8] and in series [6] was no less than 80% each time. The percent control (mortality, anti-feedant effect or growth inhibition) at 200 ppm in series [2] was no less than 80%. The percent effect (mortality or growth inhibition) at 200 ppm in series [3] and in series [5] was no less than 80% each time. Also, in [4], the percent control (mortality, anti-feedant effect or growth inhibition) at 12.5 ppm is no less than 80%.
For the compound `CCS(=O)(=O)c1cc(-c2ccc(C#N)cc2)cnc1C(=O)N(C)c1nnc(C(F)(F)F)s1` [Compound P28], the mortality at 200 ppm in series [7], in series [8] and in series [6] was no less than 80% in each case. Also, the percent control (mortality, anti-feedant effect or growth inhibition) at 200 ppm in [2] is no less than 80%. Besides, the percent effect (mortality or growth inhibition) at 200 ppm in series [3] and in [5] was no less than 80% throughout. In addition, the percent control (mortality, anti-feedant effect or growth inhibition) at 12.5 ppm in series [4] is no less than 80%.
As to `CCS(=O)(=O)c1cc(-c2cccc(SC)c2)cnc1C(=O)N(C)c1nnc(C(F)(F)F)s1` [Compound P30], the mortality at 200 ppm in [7], in series [8] and in series [6] was no less than 80% in each case. Besides, the percent control (mortality, anti-feedant effect or growth inhibition) at 200 ppm in [2] was no less than 80%. Moreover, the percent effect (mortality or growth inhibition) at 200 ppm in series [3] and in series [5] was no less than 80% throughout.
As to `CCS(=O)(=O)c1cc(-c2ccc(F)cc2)cnc1C(=O)N(C)c1nnc(C(F)(F)F)s1` [Compound P32], the mortality at 200 ppm in series [1], in series [7], in series [8] and in series [6] was no less than 80% in each case. Moreover, in [2], the percent control (mortality, anti-feedant effect or growth inhibition) at 200 ppm was no less than 80%. In addition, the percent effect (mortality or growth inhibition) at 200 ppm in [3] and in series [5] was no less than 80% throughout. Also, the percent control (mortality, anti-feedant effect or growth inhibition) at 12.5 ppm in series [4] was no less than 80%.
For the compound `CCS(=O)(=O)c1cc(-c2cc(F)cc(F)c2)cnc1C(=O)N(C)c1nnc(C(F)(F)F)s1` [Compound P35], the mortality at 200 ppm in series [7], in [8] and in series [6] was no less than 80% each time. The percent control (mortality, anti-feedant effect or growth inhibition) at 200 ppm in [2] was no less than 80%. Besides, the percent effect (mortality or growth inhibition) at 200 ppm in series [3] and in series [5] was no less than 80% throughout. Also, the percent control (mortality, anti-feedant effect or growth inhibition) at 12.5 ppm in [4] was no less than 80%.
In the case of `CCS(=O)(=O)c1cc(-c2nccc(C(F)(F)F)n2)cnc1C(=O)N(C)c1nnc(C(F)(F)F)s1` [Compound P41], the mortality at 200 ppm in series [7], in [8] and in series [6] was no less than 80% each time. For the same compound, the percent control (mortality, anti-feedant effect or growth inhibition) at 200 ppm in series [2] was no less than 80%. Further, the percent effect (mortality or growth inhibition) at 200 ppm in series [3] and in series [5] was no less than 80% in each case. The percent control (mortality, anti-feedant effect or growth inhibition) at 12.5 ppm in [4] is no less than 80%.
`CCS(=O)(=O)c1cc(-c2ncc(F)cc2F)cnc1C(=O)N(C)c1nnc(C(F)(F)F)s1` [Compound P44]: the mortality at 200 ppm in [7], in series [8] and in series [6] was no less than 80% throughout. In addition, in series [2], the percent control (mortality, anti-feedant effect or growth inhibition) at 200 ppm was no less than 80%. Moreover, the percent effect (mortality or growth inhibition) at 200 ppm in [3] and in [5] was no less than 80% throughout. For the same compound, the percent control (mortality, anti-feedant effect or growth inhibition) at 12.5 ppm in series [4] is no less than 80%.
In the case of `CCS(=O)(=O)c1cc(-c2ncc(Cl)cc2Cl)cnc1C(=O)N(C)c1nnc(C(F)(F)F)s1` [Compound P47], the mortality at 200 ppm in series [7], in series [8] and in series [6] was no less than 80% throughout. For the same compound, the percent control (mortality, anti-feedant effect or growth inhibition) at 200 ppm in [2] was no less than 80%. Also, the percent effect (mortality or growth inhibition) at 200 ppm in [3] and in [5] was no less than 80% throughout. For the same compound, the percent control (mortality, anti-feedant effect or growth inhibition) at 12.5 ppm in [4] was no less than 80%.
In the case of `CCS(=O)(=O)c1cc(-c2ccc(Cl)cn2)cnc1C(=O)N(C)c1nnc(C(F)(F)F)s1` [Compound P52], the mortality at 200 ppm in series [1], in series [7], in series [8] and in [6] was no less than 80% in each case. Moreover, in series [2], the percent control (mortality, anti-feedant effect or growth inhibition) at 200 ppm is no less than 80%. Moreover, the percent effect (mortality or growth inhibition) at 200 ppm in series [3] and in series [5] was no less than 80% throughout. For the same compound, the percent control (mortality, anti-feedant effect or growth inhibition) at 12.5 ppm in series [4] was no less than 80%.
Take `CCS(=O)(=O)c1cc(-c2ccnc(F)c2)cnc1C(=O)N(C)c1nnc(C(F)(F)F)s1` [Compound P56]: the mortality at 200 ppm in series [7], in [8] and in [6] was no less than 80% in each case. Besides, in series [2], the percent control (mortality, anti-feedant effect or growth inhibition) at 200 ppm is no less than 80%. Also, the percent effect (mortality or growth inhibition) at 200 ppm in [3] and in [5] was no less than 80% in each case. In addition, the percent control (mortality, anti-feedant effect or growth inhibition) at 12.5 ppm in [4] is no less than 80%.
